Legend:
[1] = test system: Receptor-type tyrosine-protein kinase FLT3 (Homo sapiens), P36888 [D835V]; test: Inhibition of FLT3 D835V mutant (unknown origin) assessed as residual activity at 1000 nM by KINOMEscan analysis relative to control
[2] = test system: Phosphatidylinositol 4,5-bisphosphate 3-kinase catalytic subunit alpha isoform (Homo sapiens), P42336 [I800L]; test: Inhibition of PIK3CA I800L mutant (unknown origin) assessed as residual activity at 100 nM by KINOMEscan analysis relative to control
Chain of Phosphatidylinositol 4,5-bisphosphate 3-kinase catalytic subunit alpha isoform (Homo sapiens), P42336 [I800L] (P42336 whole entry I800L, canonical isoform): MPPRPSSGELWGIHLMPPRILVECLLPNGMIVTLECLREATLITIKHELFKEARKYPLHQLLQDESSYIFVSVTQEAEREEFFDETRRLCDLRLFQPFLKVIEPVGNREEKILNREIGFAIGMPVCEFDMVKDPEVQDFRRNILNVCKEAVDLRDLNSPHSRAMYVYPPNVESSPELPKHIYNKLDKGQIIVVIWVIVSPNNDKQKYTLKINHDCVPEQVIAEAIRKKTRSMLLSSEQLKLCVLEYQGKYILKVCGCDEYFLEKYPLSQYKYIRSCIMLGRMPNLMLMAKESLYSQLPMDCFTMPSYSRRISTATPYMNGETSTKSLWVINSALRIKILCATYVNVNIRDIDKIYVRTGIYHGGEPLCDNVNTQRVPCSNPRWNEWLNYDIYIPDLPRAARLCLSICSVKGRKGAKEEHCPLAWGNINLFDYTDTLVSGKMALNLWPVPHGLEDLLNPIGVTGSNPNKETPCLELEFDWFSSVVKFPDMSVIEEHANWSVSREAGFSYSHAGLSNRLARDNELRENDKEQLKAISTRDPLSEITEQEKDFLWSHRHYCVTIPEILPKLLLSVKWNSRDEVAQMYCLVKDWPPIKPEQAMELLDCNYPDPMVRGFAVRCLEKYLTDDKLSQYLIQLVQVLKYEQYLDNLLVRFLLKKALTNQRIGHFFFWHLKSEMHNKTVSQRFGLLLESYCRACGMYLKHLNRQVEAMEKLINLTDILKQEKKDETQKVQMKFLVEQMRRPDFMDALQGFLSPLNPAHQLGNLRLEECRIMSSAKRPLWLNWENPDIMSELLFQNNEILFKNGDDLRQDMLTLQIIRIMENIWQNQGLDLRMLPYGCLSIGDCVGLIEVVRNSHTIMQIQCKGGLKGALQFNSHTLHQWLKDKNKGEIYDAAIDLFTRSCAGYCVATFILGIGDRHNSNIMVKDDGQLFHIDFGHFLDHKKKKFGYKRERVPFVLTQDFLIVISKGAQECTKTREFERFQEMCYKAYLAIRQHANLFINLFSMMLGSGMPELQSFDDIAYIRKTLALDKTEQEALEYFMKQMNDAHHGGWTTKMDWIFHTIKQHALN

[3] = target: Tyrosine-protein kinase BTK (Homo sapiens) (UniProt Q06187); test: Inhibition of BTK (unknown origin) assessed as residual activity at 100 nM by KINOMEscan analysis relative to control
[4] = target: T1, Mitogen-activated protein kinase kinase kinase 5 (Homo sapiens) (UniProt Q99683); test: Inhibition of ASK1 (unknown origin) assessed as residual activity at 100 nM by KINOMEscan analysis relative to control
T1 sequence (whole entry): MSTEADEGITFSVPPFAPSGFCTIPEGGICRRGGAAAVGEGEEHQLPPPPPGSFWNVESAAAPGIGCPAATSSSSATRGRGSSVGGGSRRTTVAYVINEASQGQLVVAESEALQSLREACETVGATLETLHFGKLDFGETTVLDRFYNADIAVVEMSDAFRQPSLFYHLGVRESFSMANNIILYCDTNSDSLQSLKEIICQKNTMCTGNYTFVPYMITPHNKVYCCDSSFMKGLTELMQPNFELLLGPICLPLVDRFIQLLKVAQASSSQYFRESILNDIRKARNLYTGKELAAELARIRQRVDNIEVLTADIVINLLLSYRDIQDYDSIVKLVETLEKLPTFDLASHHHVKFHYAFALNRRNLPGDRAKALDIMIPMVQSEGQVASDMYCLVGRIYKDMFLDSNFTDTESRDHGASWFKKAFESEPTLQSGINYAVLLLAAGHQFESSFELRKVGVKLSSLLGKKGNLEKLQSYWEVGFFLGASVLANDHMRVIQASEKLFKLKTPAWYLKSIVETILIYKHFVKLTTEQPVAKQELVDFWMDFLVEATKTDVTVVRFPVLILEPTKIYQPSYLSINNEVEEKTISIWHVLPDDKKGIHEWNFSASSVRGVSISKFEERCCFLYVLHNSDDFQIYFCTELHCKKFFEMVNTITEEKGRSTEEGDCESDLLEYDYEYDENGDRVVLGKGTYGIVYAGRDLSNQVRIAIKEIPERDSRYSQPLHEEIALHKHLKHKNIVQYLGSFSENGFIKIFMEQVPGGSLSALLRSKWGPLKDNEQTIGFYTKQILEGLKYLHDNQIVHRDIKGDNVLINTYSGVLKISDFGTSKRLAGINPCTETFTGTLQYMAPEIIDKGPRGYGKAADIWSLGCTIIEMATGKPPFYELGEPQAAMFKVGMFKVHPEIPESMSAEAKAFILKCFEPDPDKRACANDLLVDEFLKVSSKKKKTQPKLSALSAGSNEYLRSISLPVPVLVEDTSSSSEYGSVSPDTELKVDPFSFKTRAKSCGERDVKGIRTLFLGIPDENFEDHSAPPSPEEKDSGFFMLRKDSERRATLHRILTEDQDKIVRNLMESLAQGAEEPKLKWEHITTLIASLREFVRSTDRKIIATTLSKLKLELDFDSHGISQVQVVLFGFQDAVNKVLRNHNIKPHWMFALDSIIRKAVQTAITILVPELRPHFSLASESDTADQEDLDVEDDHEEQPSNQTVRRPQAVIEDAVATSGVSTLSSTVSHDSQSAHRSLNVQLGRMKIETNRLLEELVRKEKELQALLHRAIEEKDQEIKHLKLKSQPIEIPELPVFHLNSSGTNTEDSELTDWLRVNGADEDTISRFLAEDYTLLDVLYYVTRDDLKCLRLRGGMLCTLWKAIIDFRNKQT

[5] = target: T2, Myosin light chain kinase family member 4 (Homo sapiens) (UniProt Q86YV6); test: Inhibition of MYLK4 (unknown origin) assessed as residual activity at 100 nM by KINOMEscan analysis relative to control
T2 sequence (whole entry): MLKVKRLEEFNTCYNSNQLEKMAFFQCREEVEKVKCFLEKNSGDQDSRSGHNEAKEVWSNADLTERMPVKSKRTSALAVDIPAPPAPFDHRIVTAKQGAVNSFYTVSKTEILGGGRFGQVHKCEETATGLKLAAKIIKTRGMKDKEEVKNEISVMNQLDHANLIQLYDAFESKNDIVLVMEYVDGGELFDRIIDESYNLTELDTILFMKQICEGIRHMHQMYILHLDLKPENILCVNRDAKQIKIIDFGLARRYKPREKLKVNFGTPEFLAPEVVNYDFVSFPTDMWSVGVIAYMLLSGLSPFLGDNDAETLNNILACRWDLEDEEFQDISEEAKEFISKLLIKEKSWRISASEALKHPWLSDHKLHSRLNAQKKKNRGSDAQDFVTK

[6] = target: LIM domain kinase 2 (Homo sapiens) (UniProt P53671); test: Inhibition of LIMK2 (unknown origin) assessed as residual activity at 100 nM by KINOMEscan analysis relative to control
Chain of LIM domain kinase 2 (Homo sapiens) (P53671 whole entry, looked up, the tested form may be a part, canonical isoform): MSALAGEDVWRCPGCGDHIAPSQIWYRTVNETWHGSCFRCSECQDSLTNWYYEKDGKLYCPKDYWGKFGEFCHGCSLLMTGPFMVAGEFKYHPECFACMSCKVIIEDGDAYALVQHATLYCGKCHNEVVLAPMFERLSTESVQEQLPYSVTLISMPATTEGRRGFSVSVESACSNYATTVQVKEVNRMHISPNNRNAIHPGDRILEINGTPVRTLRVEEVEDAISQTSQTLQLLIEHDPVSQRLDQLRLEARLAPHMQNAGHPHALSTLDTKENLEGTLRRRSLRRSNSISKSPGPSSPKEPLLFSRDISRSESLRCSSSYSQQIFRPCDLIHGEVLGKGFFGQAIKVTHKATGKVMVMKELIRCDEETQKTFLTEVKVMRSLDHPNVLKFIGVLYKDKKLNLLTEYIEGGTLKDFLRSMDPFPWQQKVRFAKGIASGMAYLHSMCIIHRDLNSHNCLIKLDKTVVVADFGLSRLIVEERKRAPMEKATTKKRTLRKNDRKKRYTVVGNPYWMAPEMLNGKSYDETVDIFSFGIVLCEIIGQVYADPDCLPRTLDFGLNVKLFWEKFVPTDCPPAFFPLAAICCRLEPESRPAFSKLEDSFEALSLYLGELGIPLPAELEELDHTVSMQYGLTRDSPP

[7] = target: Casein kinase I isoform gamma-2 (Homo sapiens) (UniProt P78368); test: Inhibition of CSNK1G2 (unknown origin) assessed as residual activity at 100 nM by KINOMEscan analysis relative to control
Chain of Casein kinase I isoform gamma-2 (Homo sapiens) (P78368 whole entry, looked up, canonical isoform): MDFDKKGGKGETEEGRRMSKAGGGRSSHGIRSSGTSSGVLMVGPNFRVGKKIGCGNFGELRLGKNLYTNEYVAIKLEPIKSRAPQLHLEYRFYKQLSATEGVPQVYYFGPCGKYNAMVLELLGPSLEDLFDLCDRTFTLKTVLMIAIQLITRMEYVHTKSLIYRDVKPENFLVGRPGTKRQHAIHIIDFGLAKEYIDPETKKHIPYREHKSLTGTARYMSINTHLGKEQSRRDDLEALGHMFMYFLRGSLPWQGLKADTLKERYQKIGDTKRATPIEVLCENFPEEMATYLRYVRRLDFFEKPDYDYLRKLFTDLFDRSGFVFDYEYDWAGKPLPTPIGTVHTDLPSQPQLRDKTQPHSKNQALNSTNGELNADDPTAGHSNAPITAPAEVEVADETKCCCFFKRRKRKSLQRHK

[8] = target: Bone morphogenetic protein receptor type-1B (Homo sapiens) (UniProt O00238); test: Inhibition of BMPR1B (unknown origin) assessed as residual activity at 100 nM by KINOMEscan analysis relative to control
Chain of Bone morphogenetic protein receptor type-1B (Homo sapiens) (O00238 whole entry): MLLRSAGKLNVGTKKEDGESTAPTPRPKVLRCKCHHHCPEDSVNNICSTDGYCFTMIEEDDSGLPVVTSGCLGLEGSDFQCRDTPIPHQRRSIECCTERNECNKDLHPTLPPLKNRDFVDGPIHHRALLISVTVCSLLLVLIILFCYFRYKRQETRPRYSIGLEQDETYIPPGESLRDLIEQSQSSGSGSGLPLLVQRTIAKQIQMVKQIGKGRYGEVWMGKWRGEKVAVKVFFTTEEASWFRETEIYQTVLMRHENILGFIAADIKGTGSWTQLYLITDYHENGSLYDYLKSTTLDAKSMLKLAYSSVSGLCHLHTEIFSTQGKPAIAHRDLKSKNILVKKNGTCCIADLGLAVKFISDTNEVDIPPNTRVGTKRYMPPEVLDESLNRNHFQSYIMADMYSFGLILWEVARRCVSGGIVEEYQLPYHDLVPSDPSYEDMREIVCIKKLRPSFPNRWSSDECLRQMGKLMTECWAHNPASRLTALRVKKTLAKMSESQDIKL

[9] = target: Mitogen-activated protein kinase kinase kinase 14 (Homo sapiens) (UniProt Q99558); test: Inhibition of NIK (unknown origin) assessed as residual activity at 100 nM by KINOMEscan analysis relative to control
Chain of Mitogen-activated protein kinase kinase kinase 14 (Homo sapiens) (Q99558 whole entry, looked up): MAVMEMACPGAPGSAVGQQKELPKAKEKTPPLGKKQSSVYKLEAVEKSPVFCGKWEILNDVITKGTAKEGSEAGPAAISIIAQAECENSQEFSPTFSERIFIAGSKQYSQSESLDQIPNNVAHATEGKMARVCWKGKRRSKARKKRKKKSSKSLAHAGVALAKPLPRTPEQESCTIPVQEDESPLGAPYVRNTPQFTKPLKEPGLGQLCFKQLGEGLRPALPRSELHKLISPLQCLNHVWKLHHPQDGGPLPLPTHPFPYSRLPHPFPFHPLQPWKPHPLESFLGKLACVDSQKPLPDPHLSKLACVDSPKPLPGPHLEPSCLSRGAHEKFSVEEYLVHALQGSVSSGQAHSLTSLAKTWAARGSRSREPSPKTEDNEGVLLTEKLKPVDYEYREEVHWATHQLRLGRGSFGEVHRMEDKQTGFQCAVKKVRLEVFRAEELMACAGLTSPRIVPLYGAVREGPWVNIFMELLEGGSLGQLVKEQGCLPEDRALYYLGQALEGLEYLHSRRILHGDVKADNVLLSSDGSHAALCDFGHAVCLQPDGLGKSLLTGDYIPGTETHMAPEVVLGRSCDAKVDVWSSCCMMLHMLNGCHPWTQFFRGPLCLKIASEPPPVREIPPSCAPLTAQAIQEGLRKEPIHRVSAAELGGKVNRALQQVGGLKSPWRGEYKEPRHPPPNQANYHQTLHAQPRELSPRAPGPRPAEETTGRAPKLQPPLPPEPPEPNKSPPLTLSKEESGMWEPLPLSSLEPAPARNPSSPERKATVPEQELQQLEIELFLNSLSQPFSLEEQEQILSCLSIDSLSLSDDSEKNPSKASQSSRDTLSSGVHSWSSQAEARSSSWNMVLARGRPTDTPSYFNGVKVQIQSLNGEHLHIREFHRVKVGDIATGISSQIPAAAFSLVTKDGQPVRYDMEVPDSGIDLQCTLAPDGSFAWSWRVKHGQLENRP

[10] = target: Serine/threonine-protein kinase N1 (Homo sapiens) (UniProt Q16512); test: Inhibition of PKN1 (unknown origin) assessed as residual activity at 100 nM by KINOMEscan analysis relative to control
Chain of Serine/threonine-protein kinase N1 (Homo sapiens) (Q16512 2-942 limits assumed): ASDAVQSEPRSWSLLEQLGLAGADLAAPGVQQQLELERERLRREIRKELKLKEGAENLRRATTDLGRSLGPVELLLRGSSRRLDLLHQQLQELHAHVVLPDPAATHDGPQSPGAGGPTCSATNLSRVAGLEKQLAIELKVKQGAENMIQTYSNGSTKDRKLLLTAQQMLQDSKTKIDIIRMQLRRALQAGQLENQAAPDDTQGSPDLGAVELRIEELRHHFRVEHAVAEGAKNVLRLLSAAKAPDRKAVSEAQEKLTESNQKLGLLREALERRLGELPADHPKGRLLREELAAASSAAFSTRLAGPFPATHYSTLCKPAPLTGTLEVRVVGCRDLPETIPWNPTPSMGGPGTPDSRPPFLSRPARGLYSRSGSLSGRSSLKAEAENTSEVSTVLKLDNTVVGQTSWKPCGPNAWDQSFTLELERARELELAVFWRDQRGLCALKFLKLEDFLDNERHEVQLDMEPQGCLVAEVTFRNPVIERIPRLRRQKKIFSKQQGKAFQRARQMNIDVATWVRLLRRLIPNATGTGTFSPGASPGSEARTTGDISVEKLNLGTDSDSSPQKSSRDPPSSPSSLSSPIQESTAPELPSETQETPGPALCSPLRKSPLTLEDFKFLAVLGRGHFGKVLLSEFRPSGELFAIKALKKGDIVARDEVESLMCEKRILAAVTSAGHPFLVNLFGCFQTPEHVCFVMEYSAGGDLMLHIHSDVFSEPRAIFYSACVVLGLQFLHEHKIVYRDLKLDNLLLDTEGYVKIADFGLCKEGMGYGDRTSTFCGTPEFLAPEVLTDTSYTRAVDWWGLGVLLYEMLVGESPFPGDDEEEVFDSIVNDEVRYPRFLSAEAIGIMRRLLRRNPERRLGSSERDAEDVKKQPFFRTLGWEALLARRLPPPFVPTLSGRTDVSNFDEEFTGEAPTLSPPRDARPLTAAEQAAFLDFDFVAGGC

[11] = target: CDK4/Cyclin D3 (Homo sapiens) (UniProt P11802+P30281); test: Inhibition of CDK4-cyclin D3 (unknown origin) assessed as residual activity at 100 nM by KINOMEscan analysis relative to control; format: protein-complex assay
[12] = target: Tyrosine-protein kinase Fyn (Homo sapiens) (UniProt P06241); test: Inhibition of FYN (unknown origin) assessed as residual activity at 100 nM by KINOMEscan analysis relative to control
Chain of Tyrosine-protein kinase Fyn (Homo sapiens) (P06241 2-537 limits assumed): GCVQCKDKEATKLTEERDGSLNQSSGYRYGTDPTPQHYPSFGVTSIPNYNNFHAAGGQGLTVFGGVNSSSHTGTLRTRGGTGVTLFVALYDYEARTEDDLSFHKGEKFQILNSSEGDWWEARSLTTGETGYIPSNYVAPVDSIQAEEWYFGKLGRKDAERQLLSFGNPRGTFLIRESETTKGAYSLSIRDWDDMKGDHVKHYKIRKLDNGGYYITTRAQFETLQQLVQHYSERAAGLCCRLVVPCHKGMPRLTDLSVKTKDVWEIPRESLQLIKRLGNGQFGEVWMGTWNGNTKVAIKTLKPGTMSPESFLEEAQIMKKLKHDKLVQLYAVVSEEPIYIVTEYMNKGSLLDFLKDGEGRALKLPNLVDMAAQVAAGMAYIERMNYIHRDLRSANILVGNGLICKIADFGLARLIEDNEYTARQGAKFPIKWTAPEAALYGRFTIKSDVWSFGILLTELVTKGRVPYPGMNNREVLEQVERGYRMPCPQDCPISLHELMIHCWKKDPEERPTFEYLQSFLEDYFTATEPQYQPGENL

Row | SMILES | Activity [1] [%] | Activity [2] [%] | Activity [3] [%] | Activity [4] [%] | Activity [5] [%] | Activity [6] [%] | Activity [7] [%] | Activity [8] [%] | Activity [9] [%] | Activity [10] [%] | Activity [11] [%] | Activity [12] [%]
1 | COc1cc2nc(C)nc(N[C@H](C)c3cccc(-c4cn[nH]c4)c3)c2cc1OC | 100 | – | – | – | – | – | – | – | – | – | – | –
2 | COc1cc2ncnc(N[C@H](C)c3cccc4ccccc34)c2cc1OC | – | 98 | 95 | 70 | 99 | 28 | 91 | 92 | 81 | 92 | 100 | 85

Source: ChEMBL document CHEMBL5678818, “Discovery of potent SOS1 inhibitors that block RAS activation via disruption of the RAS-SOS1 interaction” (Proc Natl Acad Sci U S A, 2019)
